The target in one assay is Bile salt export pump (Homo sapiens, UniProt O95342). The assay is classed as functional.
Assay [1] deals with T1, Alpha-2A adrenergic receptor (Homo sapiens, UniProt P08913).
T1 sequence (P08913 whole entry): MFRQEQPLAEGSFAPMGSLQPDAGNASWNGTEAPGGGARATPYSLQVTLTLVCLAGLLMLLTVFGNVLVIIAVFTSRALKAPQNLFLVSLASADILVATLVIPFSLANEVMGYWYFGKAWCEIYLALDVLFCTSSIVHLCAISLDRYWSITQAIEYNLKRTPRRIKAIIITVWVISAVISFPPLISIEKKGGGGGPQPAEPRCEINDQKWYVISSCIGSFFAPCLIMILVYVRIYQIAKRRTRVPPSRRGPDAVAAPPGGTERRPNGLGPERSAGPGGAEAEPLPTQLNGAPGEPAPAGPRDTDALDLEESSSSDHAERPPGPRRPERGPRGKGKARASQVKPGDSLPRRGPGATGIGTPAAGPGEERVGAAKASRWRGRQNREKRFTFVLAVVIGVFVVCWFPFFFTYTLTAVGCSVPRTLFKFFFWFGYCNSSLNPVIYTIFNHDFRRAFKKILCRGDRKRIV

Assay [2] addresses T2, Muscarinic acetylcholine receptor M2 (Homo sapiens, UniProt P08172).
T2 sequence (P08172 whole entry): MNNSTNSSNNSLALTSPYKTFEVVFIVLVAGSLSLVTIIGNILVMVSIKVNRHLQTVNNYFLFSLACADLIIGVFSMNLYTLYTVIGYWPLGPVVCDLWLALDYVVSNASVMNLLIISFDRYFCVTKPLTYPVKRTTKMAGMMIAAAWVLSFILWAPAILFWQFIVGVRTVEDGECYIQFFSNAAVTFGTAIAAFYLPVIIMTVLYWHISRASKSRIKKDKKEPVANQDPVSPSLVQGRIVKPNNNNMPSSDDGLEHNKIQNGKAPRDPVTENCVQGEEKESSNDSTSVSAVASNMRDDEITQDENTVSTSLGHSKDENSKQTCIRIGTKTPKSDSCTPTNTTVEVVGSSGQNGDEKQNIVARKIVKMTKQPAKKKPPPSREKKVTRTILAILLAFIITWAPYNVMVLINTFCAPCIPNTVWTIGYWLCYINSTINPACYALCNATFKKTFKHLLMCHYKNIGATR

For the next assay, the target named is D(1A) dopamine receptor (Homo sapiens, UniProt P21728).
D(1A) dopamine receptor, sequence (P21728 whole entry): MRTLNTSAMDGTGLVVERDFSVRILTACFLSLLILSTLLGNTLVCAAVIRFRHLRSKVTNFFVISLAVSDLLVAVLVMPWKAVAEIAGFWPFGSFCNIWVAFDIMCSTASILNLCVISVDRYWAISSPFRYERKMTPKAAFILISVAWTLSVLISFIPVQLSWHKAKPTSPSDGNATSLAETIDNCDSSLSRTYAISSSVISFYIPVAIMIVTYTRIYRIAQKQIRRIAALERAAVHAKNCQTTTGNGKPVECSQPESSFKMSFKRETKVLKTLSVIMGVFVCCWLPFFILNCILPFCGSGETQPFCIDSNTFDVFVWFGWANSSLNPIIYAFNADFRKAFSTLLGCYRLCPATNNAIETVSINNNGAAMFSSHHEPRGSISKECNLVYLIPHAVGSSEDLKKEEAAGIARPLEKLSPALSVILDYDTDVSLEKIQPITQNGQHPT
The target in assay [3] is 5-hydroxytryptamine receptor 2B (Homo sapiens, UniProt P41595). The assay is classed as functional, cell-based.
5-hydroxytryptamine receptor 2B, sequence (P41595 whole entry): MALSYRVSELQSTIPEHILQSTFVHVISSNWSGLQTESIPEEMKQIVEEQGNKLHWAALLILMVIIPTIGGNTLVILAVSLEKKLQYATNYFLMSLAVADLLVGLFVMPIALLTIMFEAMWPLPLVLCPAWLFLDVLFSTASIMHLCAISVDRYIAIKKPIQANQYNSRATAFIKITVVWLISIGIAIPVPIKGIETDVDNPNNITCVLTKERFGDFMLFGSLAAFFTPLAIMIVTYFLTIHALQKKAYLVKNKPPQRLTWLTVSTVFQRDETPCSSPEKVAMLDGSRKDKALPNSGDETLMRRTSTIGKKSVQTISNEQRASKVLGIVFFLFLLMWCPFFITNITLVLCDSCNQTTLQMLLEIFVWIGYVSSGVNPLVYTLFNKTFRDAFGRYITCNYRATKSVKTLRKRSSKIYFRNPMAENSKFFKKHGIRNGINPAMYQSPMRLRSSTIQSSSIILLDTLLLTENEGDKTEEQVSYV
The target of assay [4] is T3, Amine oxidase [flavin-containing] A (Homo sapiens, UniProt P21397).
T3 sequence (P21397 whole entry): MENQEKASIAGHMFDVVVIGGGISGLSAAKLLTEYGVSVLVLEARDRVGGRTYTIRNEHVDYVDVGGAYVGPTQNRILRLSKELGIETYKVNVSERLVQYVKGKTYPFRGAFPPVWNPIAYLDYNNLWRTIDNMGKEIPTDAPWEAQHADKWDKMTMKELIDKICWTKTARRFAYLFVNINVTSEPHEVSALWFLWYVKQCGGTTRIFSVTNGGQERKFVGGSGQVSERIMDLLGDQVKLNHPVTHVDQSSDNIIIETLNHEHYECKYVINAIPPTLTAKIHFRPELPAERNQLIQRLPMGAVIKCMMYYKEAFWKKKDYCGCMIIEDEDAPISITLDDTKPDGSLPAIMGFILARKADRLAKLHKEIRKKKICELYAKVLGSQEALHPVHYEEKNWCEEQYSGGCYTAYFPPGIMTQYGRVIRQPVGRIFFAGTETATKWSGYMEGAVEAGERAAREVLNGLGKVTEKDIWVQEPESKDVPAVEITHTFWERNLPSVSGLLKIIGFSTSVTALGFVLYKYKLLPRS
The assay is classed as functional.

The target in a further assay is Mu-type opioid receptor (Homo sapiens, UniProt P35372).
Mu-type opioid receptor, sequence (P35372 whole entry): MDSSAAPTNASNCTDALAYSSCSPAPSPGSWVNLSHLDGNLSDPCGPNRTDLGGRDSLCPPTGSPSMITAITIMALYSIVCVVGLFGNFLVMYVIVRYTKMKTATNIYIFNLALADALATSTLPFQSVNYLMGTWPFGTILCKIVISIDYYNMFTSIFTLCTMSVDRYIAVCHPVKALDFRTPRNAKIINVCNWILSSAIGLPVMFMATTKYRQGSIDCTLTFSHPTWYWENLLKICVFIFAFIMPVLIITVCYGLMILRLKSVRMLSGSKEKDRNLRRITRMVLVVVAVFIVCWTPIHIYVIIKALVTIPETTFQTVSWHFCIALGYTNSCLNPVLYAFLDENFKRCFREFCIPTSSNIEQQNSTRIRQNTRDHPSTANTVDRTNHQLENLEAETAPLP
The target of assay [5] is 3',5'-cyclic-AMP phosphodiesterase 4A (Homo sapiens, UniProt P27815). The assay is classed as functional.
3',5'-cyclic-AMP phosphodiesterase 4A, sequence (P27815 whole entry): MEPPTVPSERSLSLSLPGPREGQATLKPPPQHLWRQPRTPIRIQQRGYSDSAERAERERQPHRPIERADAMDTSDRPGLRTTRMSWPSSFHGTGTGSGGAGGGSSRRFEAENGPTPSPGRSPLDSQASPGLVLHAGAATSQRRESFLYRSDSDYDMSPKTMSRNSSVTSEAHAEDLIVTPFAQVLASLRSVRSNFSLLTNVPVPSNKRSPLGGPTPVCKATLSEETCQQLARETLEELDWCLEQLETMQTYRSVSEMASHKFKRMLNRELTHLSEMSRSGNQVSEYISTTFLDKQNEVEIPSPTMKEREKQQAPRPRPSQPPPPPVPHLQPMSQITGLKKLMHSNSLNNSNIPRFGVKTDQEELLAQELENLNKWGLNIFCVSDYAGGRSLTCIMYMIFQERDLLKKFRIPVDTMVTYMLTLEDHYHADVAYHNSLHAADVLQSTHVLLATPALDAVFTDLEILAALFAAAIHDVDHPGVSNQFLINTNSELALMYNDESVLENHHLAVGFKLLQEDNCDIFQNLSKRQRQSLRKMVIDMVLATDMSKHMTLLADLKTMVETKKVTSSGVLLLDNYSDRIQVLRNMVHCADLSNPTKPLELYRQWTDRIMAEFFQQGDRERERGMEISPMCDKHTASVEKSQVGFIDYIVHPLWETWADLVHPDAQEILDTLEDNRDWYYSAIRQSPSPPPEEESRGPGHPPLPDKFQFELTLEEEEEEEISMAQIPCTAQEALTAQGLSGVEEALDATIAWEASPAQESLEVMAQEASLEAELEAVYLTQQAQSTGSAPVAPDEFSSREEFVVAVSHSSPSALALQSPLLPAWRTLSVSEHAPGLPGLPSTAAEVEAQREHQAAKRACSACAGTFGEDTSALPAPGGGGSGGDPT
Assay [6] deals with Prostaglandin G/H synthase 1 (Homo sapiens, UniProt P23219). The assay is classed as functional.
Prostaglandin G/H synthase 1, sequence (P23219 whole entry): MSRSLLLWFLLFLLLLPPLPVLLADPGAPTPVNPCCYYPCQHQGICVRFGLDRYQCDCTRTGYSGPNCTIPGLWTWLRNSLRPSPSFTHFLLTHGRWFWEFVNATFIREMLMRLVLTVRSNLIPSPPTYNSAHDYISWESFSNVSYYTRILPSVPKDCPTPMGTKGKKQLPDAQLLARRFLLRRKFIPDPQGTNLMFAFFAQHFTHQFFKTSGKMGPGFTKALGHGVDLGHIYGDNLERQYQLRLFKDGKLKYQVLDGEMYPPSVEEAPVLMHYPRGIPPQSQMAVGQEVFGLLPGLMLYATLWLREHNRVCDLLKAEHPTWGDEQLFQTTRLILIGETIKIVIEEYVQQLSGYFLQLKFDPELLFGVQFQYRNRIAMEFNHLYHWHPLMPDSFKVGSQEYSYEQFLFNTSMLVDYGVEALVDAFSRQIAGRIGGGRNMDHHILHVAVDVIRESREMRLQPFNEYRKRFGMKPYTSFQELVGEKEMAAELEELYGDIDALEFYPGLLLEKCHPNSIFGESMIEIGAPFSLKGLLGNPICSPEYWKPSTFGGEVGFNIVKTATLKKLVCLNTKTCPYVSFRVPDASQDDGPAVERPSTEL
The target of assay [7] is Sodium-dependent noradrenaline transporter (Homo sapiens, UniProt P23975).
Sodium-dependent noradrenaline transporter, sequence (P23975 whole entry): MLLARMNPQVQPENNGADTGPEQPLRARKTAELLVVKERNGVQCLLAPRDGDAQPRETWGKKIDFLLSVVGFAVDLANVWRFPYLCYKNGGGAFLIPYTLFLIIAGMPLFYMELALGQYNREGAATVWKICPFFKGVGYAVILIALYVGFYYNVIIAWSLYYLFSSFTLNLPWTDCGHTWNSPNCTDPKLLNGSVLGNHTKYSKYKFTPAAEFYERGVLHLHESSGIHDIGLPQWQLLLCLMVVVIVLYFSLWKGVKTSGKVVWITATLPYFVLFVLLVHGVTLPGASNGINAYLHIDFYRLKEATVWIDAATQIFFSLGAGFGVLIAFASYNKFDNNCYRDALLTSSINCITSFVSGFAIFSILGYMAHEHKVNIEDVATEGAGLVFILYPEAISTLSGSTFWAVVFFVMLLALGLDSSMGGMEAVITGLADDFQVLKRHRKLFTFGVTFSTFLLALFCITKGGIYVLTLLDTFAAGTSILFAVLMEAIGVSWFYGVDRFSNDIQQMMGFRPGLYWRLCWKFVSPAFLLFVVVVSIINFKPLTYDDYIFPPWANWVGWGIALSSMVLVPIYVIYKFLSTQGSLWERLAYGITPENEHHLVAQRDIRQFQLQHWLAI
For a further assay, the target named is T4, Thromboxane A2 receptor (Homo sapiens, UniProt P21731).
T4 sequence (P21731 whole entry): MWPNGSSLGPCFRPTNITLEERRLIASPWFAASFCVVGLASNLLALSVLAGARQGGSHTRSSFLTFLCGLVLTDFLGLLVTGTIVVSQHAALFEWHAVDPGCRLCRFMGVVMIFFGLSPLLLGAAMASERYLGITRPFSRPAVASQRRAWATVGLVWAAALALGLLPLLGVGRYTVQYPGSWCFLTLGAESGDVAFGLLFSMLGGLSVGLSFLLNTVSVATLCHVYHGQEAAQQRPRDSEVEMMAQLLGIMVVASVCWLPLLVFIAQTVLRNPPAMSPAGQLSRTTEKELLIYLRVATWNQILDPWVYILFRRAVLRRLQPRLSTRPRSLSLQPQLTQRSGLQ
The assay is classed as functional, cell-based.

In ChEMBL document CHEMBL5291721, “A preclinical secondary pharmacology resource illuminates target-adverse drug reaction associations of marketed drugs” (Nat Commun, 2023) one finds AC50 data, which are given here for three compounds.

A value given as a limit tells only on which side of the number the result lay.
Further: assay procedure not described here.

Bile salt export pump, sequence (O95342 whole entry): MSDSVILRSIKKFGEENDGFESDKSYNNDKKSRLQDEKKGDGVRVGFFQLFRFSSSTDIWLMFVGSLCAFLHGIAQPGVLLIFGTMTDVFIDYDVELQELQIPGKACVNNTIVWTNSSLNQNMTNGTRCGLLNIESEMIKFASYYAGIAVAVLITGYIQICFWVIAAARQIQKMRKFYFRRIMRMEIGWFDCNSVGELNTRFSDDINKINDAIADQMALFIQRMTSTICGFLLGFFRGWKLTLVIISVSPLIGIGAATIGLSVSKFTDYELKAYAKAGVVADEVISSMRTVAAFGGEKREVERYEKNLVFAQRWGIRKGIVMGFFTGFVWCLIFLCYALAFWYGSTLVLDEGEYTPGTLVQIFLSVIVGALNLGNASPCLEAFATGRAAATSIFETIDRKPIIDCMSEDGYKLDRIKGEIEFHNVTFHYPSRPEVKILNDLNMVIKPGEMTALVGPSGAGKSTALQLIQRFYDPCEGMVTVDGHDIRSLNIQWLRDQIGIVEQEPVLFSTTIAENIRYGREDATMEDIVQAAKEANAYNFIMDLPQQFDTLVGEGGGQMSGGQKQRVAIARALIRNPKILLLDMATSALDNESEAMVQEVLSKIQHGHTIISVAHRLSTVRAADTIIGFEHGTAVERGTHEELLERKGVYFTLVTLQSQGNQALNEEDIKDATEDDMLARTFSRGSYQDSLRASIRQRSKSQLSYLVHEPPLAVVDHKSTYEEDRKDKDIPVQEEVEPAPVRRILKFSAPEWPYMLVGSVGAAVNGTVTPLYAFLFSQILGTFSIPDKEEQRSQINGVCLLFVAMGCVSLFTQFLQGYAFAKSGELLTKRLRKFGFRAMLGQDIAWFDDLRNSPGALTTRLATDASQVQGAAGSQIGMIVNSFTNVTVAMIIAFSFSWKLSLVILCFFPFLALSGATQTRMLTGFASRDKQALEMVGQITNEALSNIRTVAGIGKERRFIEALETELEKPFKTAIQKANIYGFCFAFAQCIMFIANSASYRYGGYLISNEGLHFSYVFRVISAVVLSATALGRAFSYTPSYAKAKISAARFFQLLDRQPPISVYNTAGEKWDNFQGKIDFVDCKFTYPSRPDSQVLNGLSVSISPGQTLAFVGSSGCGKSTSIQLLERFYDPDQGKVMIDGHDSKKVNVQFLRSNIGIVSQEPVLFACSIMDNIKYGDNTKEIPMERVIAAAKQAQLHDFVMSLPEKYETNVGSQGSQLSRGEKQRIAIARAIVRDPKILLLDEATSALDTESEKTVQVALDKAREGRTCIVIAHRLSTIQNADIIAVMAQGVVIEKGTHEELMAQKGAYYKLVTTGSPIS

Turning to `COc1cc2nc(N3CCN(C(=O)C4CCCO4)CC3)nc(N)c2cc1OC` (stereo not drawn) [TERAZOSIN], the AC50 was over 300 µM at Bile salt export pump; 11.8 µM in assay [1]; over 30 µM in assay [2]; 27.8 µM at D(1A) dopamine receptor; over 30 µM in assay [3]; over 30 µM in assay [4]. The AC50 (at Mu-type opioid receptor; in [5]; in assay [6]; in assay [7]; at Thromboxane A2 receptor) was over 30 µM throughout.
Turning to `Cc1ccccc1C(=O)Nc1ccc(C(=O)N2CCCC(N(C)C)c3ccccc32)cc1` (stereo not drawn) [MOZAVAPTAN], the AC50 at Bile salt export pump was 14 µM; in assay [1] it was over 30 µM; in [2], over 30 µM; on D(1A) dopamine receptor it was over 30 µM; in [3], over 30 µM; in assay [4] it was over 30 µM. Further, the AC50 is 2.48 µM on Mu-type opioid receptor; over 30 µM in assay [5]; over 30 µM in assay [6]; over 30 µM in assay [7]; over 30 µM on Thromboxane A2 receptor.
As for `OC[C@@H](O)[C@@H](O)[C@H](O)[C@@H](O)CO` [SORBITOL], the AC50 on Bile salt export pump is over 300 µM; in assay [1] it was over 30 µM; in [2] it was over 30 µM; at D(1A) dopamine receptor it was over 30 µM; in [3], over 30 µM; in assay [4], over 30 µM. Also, the AC50 (on Mu-type opioid receptor; in assay [5]; in [6]; in assay [7]; on Thromboxane A2 receptor) was over 30 µM in each case.

Broadly, the AC50 is the concentration at which the activity in the assay is half-maximal.
